Measured values reported in US12685313B2, “Agricultural composition comprising kasugamycin” (UPL Corporation Limited, priority 2021, dated 2026).

How the values were obtained:
Fusarium oxysporum = test: In vitro control of Fusarium oxysporum on PDA medium; format: cell-based; settings: Fusarium oxysporum from potato, dose 1 L/400 L water, 28-30° C., dark, 7 days
Procedure: A strain of Fusarium oxysporum isolated from potato was cultivated in a solid potato dextrose agar (PDA) medium. The efficacy of the mixture of kasugamycin and laminarin in a 1:1 ratio, and each component individually was tested.
(§1) The in vitro assessment of the products effectiveness was carried out as per the treatments discussed in Table 2. Accordingly, the components in each treatment were dissolved in the PDA culture medium at the dose indicated above. The mixture was homogenized and poured into sterile petri dishes. Explants of 5 mm diameter of the fungus strain Fusarium oxysporum were placed on the petri dishes with PDA. The dishes were incubated inverted, in dark conditions at a temperature of 28-30° C. The evaluation of the inhibition of the fungus was carried out 7 days later.
This effectiveness of all treatments as measured by percent reduction in the Fusarium oxysporum growth, was also evaluated according to Colby's equation as below. […]
If the actual/observed anti-phytopathogenic efficacy of the kasugamycin and laminarin combination against Fusarium oxysporum exceeds the calculated value, then the activity of the combination is super additive, i.e. a synergistic effect exists. In this case, the efficacy which was actually observed must be greater than the value for the expected efficacy (E) calculated from the abovementioned formula.

Alternaria alternata = test: In vitro control of Alternaria alternata on PDA medium; format: cell-based; settings: Alternaria alternata from potato, dose 1 L/400 L water, 28-30° C., dark, 7 days
Procedure: A strain of Alternaria alternata isolated from potato was cultivated in a solid potato dextrose agar (PDA) medium. The efficacy of the mixture of kasugamycin and laminarin in a 1:1 ratio, and each component individually was tested.
as §1, with “4.” for “2.”, “in” for “in the”, “Alternaria alternata” for “the fungus strain Fusarium oxysporum”, “inverted” for “inverted,”
The present inventors have calculated the Colby value of the synergistic combination as discussed in Example 4 above.

## C[C@H]1O[C@H](O[C@H]2[C@H](O)[C@@H](O)[C@@H](O)[C@H](O)[C@@H]2O)[C@@H](N)C[C@@H]1NC(=N)C(=O)O [Kasugamycin]
Fusarium oxysporum
  % Observed control: 48%
Alternaria alternata
  % Observed control: 54%

## Laminarin
Fusarium oxysporum
  % Observed control: 11%
Alternaria alternata
  % Observed control: 30%
